Measured values published in article PMC12366525, “Characterization of allosteric modulators that disrupt androgen receptor co-activator protein-protein interactions to alter transactivation–Drug leads for metastatic castration resistant prostate cancer” (SLAS discovery : advancing life sciences R & D, 2023).
Several values for one entry are separate records, joined by “and”; a condition that tells them apart may be missing. Equal entries are not always repeated. Where two headings read alike, the source gives them in different places.

What was measured:
Format in all cases: cell-based
AR-TIF2 PPI = target: T1, AR-TIF2 PPI (Homo sapiens, UniProt P10275); test: AR-TIF2 PPI biosensor (PPIB) HCS assay, inhibition of DHT-induced AR-TIF2 PPI formation; conditions: for IC50: U-2 OS cells, compounds 3 h prior to 25 nM DHT for 90 min
T1 construct: expressed in transfected cells; host or cells: U-2 OS osteosarcoma cells, co-infected with recombinant adenoviruses
T1 sequence (P10275 663-920 limits assumed): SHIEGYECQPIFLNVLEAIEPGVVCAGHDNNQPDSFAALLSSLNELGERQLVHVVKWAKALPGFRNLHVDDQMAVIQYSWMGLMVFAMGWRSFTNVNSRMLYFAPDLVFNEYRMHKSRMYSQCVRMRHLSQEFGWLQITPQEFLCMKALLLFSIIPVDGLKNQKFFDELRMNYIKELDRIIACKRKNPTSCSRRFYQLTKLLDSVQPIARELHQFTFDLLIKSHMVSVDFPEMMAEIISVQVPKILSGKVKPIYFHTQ
Experimental: Daughter plates containing 2 μL of the serially diluted compounds in DMSO were prepared and replicated from 384-well serial dilution master plates using a Janus MDT platform outfitted with a 384-well transfer head. Aluminum adhesive plate seals were applied, and plates were stored at −20 °C. For bioassay testing, daughter plates were withdrawn from −20 °C storage, thawed to ambient temperature, and centrifuged for 1 min at 100 × g, and plate seals were removed before 38 μL of serum-free media (SFM) was transferred into wells using a Matrix pipettor (ThermoFisher, Waltham, MA), to generate an intermediate stock concentration of validation compounds ranging from 0.977 to 500 μM (5.0% DMSO). Diluted compounds were mixed by repeated aspiration and dispensation using a 384-well P30 dispensing head on the Janus MDT platform and then, 5 μL of diluted compounds was transferred to assay plate wells to provide a final concentration range from 0.0977 to 50 μM (0.5% DMSO).
The AR-TIF2 PPIB HCS assay was performed in U-2 OS osteosarcoma cells as described previously. Briefly, U-2 OS cells were coinfected with recombinant adenovirus biosensor expression constructs and seeded at 2500 cells per well in 384-well collagen-coated microplates (Greiner BioOne #781956) and plates were incubated overnight at 37°C in 5% CO2 and 95% humidity. […] After the appropriate time, assay plates were fixed by transfer of 50 μL of pre-warmed (37°C) 7.4% formaldehyde and 2 μg/mL Hoechst 33342 in PBS and incubation at room temperature for 30 min. Liquid was aspirated, plates were washed twice with 85 μL PBS, leaving the final wash in the plate. Plates were sealed with adhesive aluminum plate seals, and fluorescent images of three fields of view were acquired in the DAPI (Hoechst stained nuclei), FITC (TIF2-GFP) and Texas Red (AR-RFP) channels on an ImageXpress Micro (IXM) automated HCS platform (Molecular Devices LLC, Sunnyvale, CA) using a 10X Plan Fluor 0.3 NA objective. Images were analyzed using the Translocation Enhanced (TE) image analysis module of the MetaXpress software as described previously.
(§1) In 384-well assays, DMSO minimum (n = 32) and maximum (n = 32) plate control wells were utilized to calculate signal-to-background ratios (S:B) and Z’-factor coefficient assay performance quality control statistics, and to normalize the signals of compound treated wells and to represent 0% and 100% respectively. For the 96-well AR-LBD H^3-DHT radioligand binding assay, eight minimum and maximum plate control wells were utilized to normalize the data. For the PC cell line growth inhibition assays we used the DMSO control data from the T0 and T72 assay plates to assess the dynamic range of the T0 to T72 cell growth, and to calculate S:B ratios and Z’-factor coefficient statistics for the assay signal window (T0 to T72). To normalize the 72 h compound exposure PC growth inhibition data, the signals from the compound treated wells were processed and expressed as% of the T72 DMSO plate controls. IC50 and GI50 values for each of the bioassays were calculated using Graph-Pad Prism 9 software to plot and fit data to curves using the Sigmoidal dose response variable slope equation Y = Bottom + [Top-Bottom]/ [1 + 10^^(LogEC50-X)*HillSlope].

22Rv1 cells = test: Prostate cancer cell line growth inhibition assay, 22Rv1; conditions: read-out: 22Rv1 GI50 (AR+)
Experimental: (§2) The PC-3, DU-145, LNCaP, C4–2, and 22Rv1 PC cell line growth inhibition assays have been described previously. On day 1, each PC cell line was harvested, counted, and seeded into two 384-well assay plates, a time zero (T0) and a time 72 h (T72) plate. PC cell lines were all seeded at 1000 cells per well in 45 μL of tissue culture media in uncoated white clear bottom 384-well assay plates (VWR, # 82050–076) using a Matrix electronic multichannel pipette (Thermo Fisher Scientific, Waltham, MA) and cultured overnight at 37 °C, 5% CO2, and 95% humidity. On day 2, 25 μL of the Cell Titer Glo (CTG) (Promega Corporation, Madison, WI) detection reagent was dispensed into the wells of the T0 assay plate using a Matrix electronic multichannel pipette, and the RLUs were captured on the SpectraMax M5e (Molecular Devices LLC, Sunnyvale, CA) microtiter plate reader. Also on day 2, 5 μL of compounds were transferred into the test wells of the T72 384-well assay plates which were returned to the incubator for 72 h. Control wells received DMSO alone. On day 5, 25 μL of the CTG detection reagent was dispensed into the wells of the T72 assay plate using a Matrix electronic multichannel pipette, and the RLU’s were captured on the SpectraMax M5e microtiter plate reader platform.
as §1

LNCaP cells = test: Prostate cancer cell line growth inhibition assay, LNCaP; conditions: 72 h, read-out: LNCap GI50 (AR+)
Experimental: as §2, §1

C4–2 cells = test: Prostate cancer cell line growth inhibition assay, C4–2; conditions: read-out: C4–2 GI50 (AR +)
Experimental: as §2, §1

[1] = tested on: PC cell lines positive (LNCaP, C4–2, & 22Rv1 cells) or negative (PC-3 & DU-145) for AR; test: Prostate cancer cell line growth inhibition assays, panel statements; conditions: 72 h
Experimental: as §2, §1

[2] = LNCaP, C4–2, 22Rv1, read-out: GI50s in AR positive PC cell lines

| Structure (SMILES) | IC50 (AR-TIF2 PPI) | GI50 (22Rv1 cells; Homo sapiens, 22Rv1, 72 h) | GI50 (LNCaP cells; Homo sapiens, LNCaP) | GI50 (C4–2 cells; C4-2, 72 h) | GI50 [1, 2] | GI50 (22Rv1 cells; 72 h) | GI50 (LNCaP cells) | GI50 (C4–2 cells; 72 h) | Cytotoxicity in AR positive relative to AR negative PC cell lines [1] | GI50 ([1]; Homo sapiens, PC-3, DU-145, read-out: GI50s in AR negative PC cell lines) | Reduction in relative potency versus parent hit in AR-TIF2 PPIB assay formats (AR-TIF2 PPI; S1 analogs vs S1–1, S3–15 vs S3–14) |
| --- | --- | --- | --- | --- | --- | --- | --- | --- | --- | --- | --- |
| Cc1ccccc1-c1cc(O)c2c(c1)CN(c1nc(C(N)=O)cs1)CCO2 [S1–1] | 5.64 µM | 55.5 µM | 28.9 µM | 31.7 µM | 29 to 56 µM | – | – | – | – | – | – |
| Cc1ccccc1-c1cc(O)c2c(c1)CN(c1nccs1)CCO2 [S1–3] | 30.5 µM | – | – | – | – | 75.2 µM | 43.4 µM | 45.5 µM | exhibited differential cytotoxicity in AR positive PC cell lines | – | – |
| Cc1nsc(NC(=O)N2CCC(Sc3ccccc3C)CC2)n1 [S2–6] | 1.06 µM | 17.6 µM | 19.2 µM | 14.1 µM | 14 to 19 µM | – | – | – | exhibited differential cytotoxicity in AR positive PC cell lines | > 100 µM | – |
| Cc1c(-c2ccccc2F)[nH]c2ccc(CNC(=O)CCc3cn[nH]c3)cc12 [S3–11] | 3.25 µM and 3.2 µM | 15 µM | 7.41 µM | 7.93 µM | – | – | – | – | exhibited differential cytotoxicity in AR positive PC cell lines relative to AR negative cell lines | – | – |
| Cc1c(-c2ccccc2F)[nH]c2ccc(CNC(=O)CCc3cnccn3)cc12 [S3–12] | 4.24 µM | 20.5 µM | 1.92 µM | 1.92 µM | – | – | – | – | roughly equipotent against all 5 PC cell lines | – | – |
| CC(=O)NCCC(=O)NCc1ccc2[nH]c(-c3ccccc3F)c(C)c2c1 [S3–13] | 7.16 µM | > 100 µM | 67.2 µM | 69.8 µM | – | – | – | – | roughly equipotent against all 5 PC cell lines | – | – |
| Cc1c(-c2ccccc2F)[nH]c2ccc(CNC(=O)c3ccc(CO)o3)cc12 [S3–14] | 2.13 µM | 102 µM | 31.1 µM | 33 µM | – | – | – | – | exhibited differential cytotoxicity in AR positive PC cell lines relative to AR negative cell lines | – | – |
| Cc1c(-c2ccc(F)cc2)[nH]c2ccc(CNC(=O)c3ccc(CO)o3)cc12 [S3–15] | 5.11 µM | 17.4 µM | 14 µM | 16.8 µM | – | – | – | – | roughly equipotent against all 5 PC cell lines | – | ~ 2 fold |
